# Where two headings read alike, the source gives them in different places.
# Columns and labels:
# [1] = system: human cancer cells; assay: Viability of human cancer cells at 72 hours post-treatment; type: cell-based; conditions: change in potency relative to ONC201; viability at 72 hours post-treatment
# Method: A number of exemplary analogs of compound (1) were prepared based on the syntheses described here. For each of these compounds, the viability of human cancer cells at 72 hours post-treatment with the compound was measured.
# [2] = system: human colon cancer xenograft; assay: Human colon cancer xenograft-bearing mice; type: in vivo; conditions: single dose, oral or intraperitoneal, compared to vehicle-treated control cohorts
# [3] = biological target: T1, human BCRP (Homo sapiens, UniProt Q9UNQ0); assay: BCRP inhibition, bidirectional permeability of prazosin in MDCKII-BCRP monolayers; conditions: prazosin probe; inhibitor 1 μM Ko134 (positive control)
# T1 sequence (Q9UNQ0 1-655): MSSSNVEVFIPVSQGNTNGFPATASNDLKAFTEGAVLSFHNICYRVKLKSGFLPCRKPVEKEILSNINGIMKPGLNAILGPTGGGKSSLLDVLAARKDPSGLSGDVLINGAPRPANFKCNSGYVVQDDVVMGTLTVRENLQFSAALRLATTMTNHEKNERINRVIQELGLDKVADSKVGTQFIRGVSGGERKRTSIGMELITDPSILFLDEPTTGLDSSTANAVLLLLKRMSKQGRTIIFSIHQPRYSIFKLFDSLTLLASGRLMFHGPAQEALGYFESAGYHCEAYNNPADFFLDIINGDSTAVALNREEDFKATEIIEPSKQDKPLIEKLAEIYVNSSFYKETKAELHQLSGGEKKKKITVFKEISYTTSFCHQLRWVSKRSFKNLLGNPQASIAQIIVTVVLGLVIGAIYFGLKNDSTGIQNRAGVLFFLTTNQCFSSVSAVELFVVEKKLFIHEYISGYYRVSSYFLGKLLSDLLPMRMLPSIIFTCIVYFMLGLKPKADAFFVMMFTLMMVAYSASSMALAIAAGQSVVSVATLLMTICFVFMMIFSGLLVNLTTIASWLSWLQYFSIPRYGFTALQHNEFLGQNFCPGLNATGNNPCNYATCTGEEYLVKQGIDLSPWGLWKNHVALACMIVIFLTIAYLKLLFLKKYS
# [4] = system: CYP 1A2; assay: CYP mRNA induction in cryopreserved human hepatocytes
# [5] = system: CYP 3A4; assay: as above
# [6] = system: CYP 2B6; assay: as above
# [7] = biological target: human MDR1 (Homo sapiens, UniProt P08183); conditions: digoxin probe; inhibitor 10 μM Valspodar (positive control)
# [8] = donor CDP, NC: flumazenil (25 μM)
# [9] = donor two, NC: flumazenil (25 μM)
# Chain of human MDR1 (P08183 whole entry): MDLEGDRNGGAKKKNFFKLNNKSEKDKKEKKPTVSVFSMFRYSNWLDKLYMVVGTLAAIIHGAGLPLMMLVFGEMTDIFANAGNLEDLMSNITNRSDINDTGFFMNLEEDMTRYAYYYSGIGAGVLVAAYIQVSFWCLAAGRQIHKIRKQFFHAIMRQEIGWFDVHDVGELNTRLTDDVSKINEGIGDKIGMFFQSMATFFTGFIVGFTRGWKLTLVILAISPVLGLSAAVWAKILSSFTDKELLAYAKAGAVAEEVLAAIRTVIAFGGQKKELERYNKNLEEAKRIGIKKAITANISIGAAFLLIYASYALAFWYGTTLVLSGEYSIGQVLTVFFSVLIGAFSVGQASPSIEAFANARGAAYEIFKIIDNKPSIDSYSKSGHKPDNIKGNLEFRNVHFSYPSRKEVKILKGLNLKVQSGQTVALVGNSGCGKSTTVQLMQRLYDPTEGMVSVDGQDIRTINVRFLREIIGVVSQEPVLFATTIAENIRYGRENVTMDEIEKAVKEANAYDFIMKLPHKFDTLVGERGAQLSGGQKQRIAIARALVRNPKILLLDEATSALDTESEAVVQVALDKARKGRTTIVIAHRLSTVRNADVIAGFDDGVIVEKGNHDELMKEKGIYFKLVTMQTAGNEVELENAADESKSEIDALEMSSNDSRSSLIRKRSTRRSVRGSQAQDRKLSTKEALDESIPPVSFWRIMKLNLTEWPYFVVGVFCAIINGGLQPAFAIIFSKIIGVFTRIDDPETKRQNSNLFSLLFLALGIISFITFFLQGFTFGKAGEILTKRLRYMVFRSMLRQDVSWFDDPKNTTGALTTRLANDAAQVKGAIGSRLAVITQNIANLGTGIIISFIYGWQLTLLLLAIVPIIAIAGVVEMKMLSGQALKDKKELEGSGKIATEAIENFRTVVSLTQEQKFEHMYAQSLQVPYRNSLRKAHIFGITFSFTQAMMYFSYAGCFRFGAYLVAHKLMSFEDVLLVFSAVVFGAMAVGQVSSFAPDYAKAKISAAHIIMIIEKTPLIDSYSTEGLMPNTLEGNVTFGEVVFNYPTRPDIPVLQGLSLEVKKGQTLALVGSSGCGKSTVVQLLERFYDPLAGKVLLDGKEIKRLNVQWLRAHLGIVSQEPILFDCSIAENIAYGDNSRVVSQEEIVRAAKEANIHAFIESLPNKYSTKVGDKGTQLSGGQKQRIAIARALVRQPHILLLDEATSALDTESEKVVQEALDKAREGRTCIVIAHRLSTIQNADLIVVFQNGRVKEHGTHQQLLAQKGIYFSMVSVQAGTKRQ
compound,measurement,setting,value
O=C1C2=C(CCN(Cc3ccccc3)C2)N2CCN=C2N1Cc1ccccc1F [ONC217],Relative Potency,[1],B (B Indicates potency that is within 2-fold of ONC201)
O=C1C2=C(CCN(Cc3ccccc3)C2)N2CCN=C2N1Cc1ccc(C(F)(F)F)cc1 [ONC212],tumor volume,[2],significant reduction of tumor volume
"CC(C)C[C@H]1c2[nH]c3ccccc3c2C[C@H]2C(=O)N[C@@H](CCC(=O)OC(C)(C)C)C(=O)N21 [Ko134, reference compound]",% Inhibition (Efflux Ratio),[3],98.7%
CCOC(=O)c1ncn2c1CN(C)C(=O)c1cc(F)ccc1-2 [flumazenil],mRNA Induction Fold,[4]; [8],1.16 fold
same,mRNA Induction Fold,"[4]; donor one, NC: flumazenil (25 μM)",1.31 fold
same,mRNA Induction Fold,[4]; [9],1.34 fold
same,mRNA Induction Fold,[5],1.37 fold
same,mRNA Induction Fold,"[5]; CYP 3A4, donor CDP, NC: flumazenil (25 μM)",1.03 fold
same,mRNA Induction Fold,"[5]; CYP 3A4, donor two, NC: flumazenil (25 μM)",0.93 fold
same,mRNA Induction Fold,[6]; [8],1.16 fold
same,mRNA Induction Fold,[6]; [9],1.27 fold
O=C1C2=C(CCN(Cc3ccccc3)C2)N2CCN=C2N1Cc1ccc(Cl)c(Cl)c1 [ONC211],Relative Potency,[1],A (A Indicates a potency increase of >2-fold of ONC201)
CCC1(c2ccccc2)C(=O)NC(=O)NC1=O [phenobarbital],mRNA Induction Fold,"[6]; donor CDP, PC: phenobarbital (750 μM)",8.56 fold
same,mRNA Induction Fold,"[6]; donor one, PC: phenobarbital (750 μM)",14.38 fold
same,mRNA Induction Fold,"[6]; donor two, PC: phenobarbital (750 μM)",8.98 fold
O=C1C2=C(CCN(Cc3ccccc3)C2)N2CCN=C2N1Cc1cc(F)cc(F)c1 [ONC210],Relative Potency,[1],A (A Indicates a potency increase of >2-fold of ONC201)
O=C1C2=C(CCN(Cc3ccccc3)C2)N2CCN=C2N1CC1CCON1 (stereo not drawn) [ONC222],Relative Potency,[1],B (B Indicates potency that is within 2-fold of ONC201)
COc1ccc2[nH]c([S+]([O-])Cc3ncc(C)c(OC)c3C)nc2c1 (stereo not drawn) [omeprazole],mRNA Induction Fold,"[4]; donor CDP, PC: omeprazole (50 μM)",28.71 fold
same,mRNA Induction Fold,"[4]; donor one, PC: omeprazole (50 μM)",35.53 fold
same,mRNA Induction Fold,"[4]; donor two, PC: omeprazole (50 μM)",31.06 fold
"C/C=C/C[C@@H](C)C(=O)[C@H]1C(=O)N[C@@H](C(C)C)C(=O)N(C)CC(=O)N(C)[C@@H](CC(C)C)C(=O)N[C@@H](C(C)C)C(=O)N(C)[C@@H](CC(C)C)C(=O)N[C@@H](C)C(=O)N[C@H](C)C(=O)N(C)[C@@H](CC(C)C)C(=O)N(C)[C@@H](CC(C)C)C(=O)N(C)[C@@H](C(C)C)C(=O)N1C [Valspodar, reference compound]",% Inhibition (Efflux Ratio),[7],96.8%

# Source: patent publication US11976068B2 (CHIMERIX, INC., priority 2015, dated 2024)
